From BigSolDB 2.1

CCN(CC)CCNC(=O)c1c(C)[nH]c(/C=C2\C(=O)Nc3ccc(F)cc32)c1C.O=C(O)C[C@H](O)C(=O)O
Conditions | solubility (mole fraction)
in PEG-400, 298.2 K | 0.00634
in PEG-400, 303.2 K | 0.0076
in PEG-400, 308.2 K | 0.00996
in PEG-400, 313.2 K | 0.0129
in PEG-400, 318.2 K | 0.0167

solubility (mole fraction)
Conditions | in ethanol | in ethylene glycol | in isopropanol | in propylene glycol | in transcutol | in water
298.2 K | 0.00277 | 0.00104 | 0.00634 | 0.00179 | 0.00997 | 3.72e-06
303.2 K | 0.00321 | 0.00139 | 0.0076 | 0.00228 | 0.0117 | 4.74e-06
308.2 K | 0.00372 | 0.00186 | 0.00996 | 0.00303 | 0.0136 | 6.09e-06
313.2 K | 0.0043 | 0.00244 | 0.0129 | 0.00385 | 0.0163 | 8.46e-06
318.2 K | 0.00516 | 0.00313 | 0.0167 | 0.00483 | 0.0187 | 1.05e-05
